Laboratory results as given in PubChem BioAssay AID1996.
In brackets after ≈: the same amount, converted by molar mass.

Conditions: buffer; pH 7.4; 200.0 µM

Compound | solubility kinetic [µg/mL]
COc1ccc(/C=C(\C#N)C(=O)OCC(=O)NC2CC2)cc1 | 10.1 (≈ 33.6 µM)
COc1cc(OC)cc(C(=O)NCc2ccc(-n3cccc3)cc2)c1 | 0.4 (≈ 1.19 µM)
CN(C(=O)COC(=O)c1ccc2ccccc2n1)C1CCCCC1 | > 49
CN(C)CCNC(=O)COc1cccc2c1OC(C)(C)C2 | > 43.9
Cc1nc2ncnn2c(C)c1Cc1cccc(C(F)(F)F)c1 | > 45.9
CCOc1ncccc1C(=O)Nc1ccccc1F | 2.5 (≈ 9.61 µM)
CCN(CC)C(=N)N1c2ccccc2CCC1C.Cl (stereo unspecified) | 40.8
COc1ccccc1NC(=O)NC1CCCCCCC1 | 2.7 (≈ 9.77 µM)
COc1cc(OC)c(NC(=S)NCc2ccc(F)cc2)cc1Cl | 1 (≈ 2.82 µM)
COc1ccc(S(=O)(=O)NCCc2ccco2)cc1OC | > 46.7
O=C(Nc1cccc(Cl)c1)OC1CN2CCC1CC2 (stereo unspecified) | 3.6 (≈ 12.8 µM)
Cc1cc2c(Nc3ccccc3)ncnc2s1.Cl | 13
N#Cc1ccccc1NC(=O)c1cc(=O)c2ccccc2o1 | 1.9 (≈ 6.55 µM)
O=[N+]([O-])c1ccc(N2CCN(c3ccc(O)cc3)CC2)cn1 | > 45
Cc1cc(C)c(C#N)c(SCc2ccccc2F)n1 | < 0.3
Cc1ccc(NC(=O)CCC(=O)N2CCC(C)CC2)c([N+](=O)[O-])c1 | > 50
CC(Oc1ccc(Cl)cc1C(N)=O)C(=O)N1CCc2ccccc21 (stereo unspecified) | 9.6 (≈ 27.8 µM)
CC1CN(C(=O)COC(=O)c2cc3ccccc3cc2O)CC(C)O1 (stereo unspecified) | 12.7 (≈ 37 µM)
O=C(N=C1SC2CS(=O)(=O)CC2N1c1ccccc1)c1ccccc1 (stereo unspecified) | 4 (≈ 10.7 µM)
COCCNC(=O)/C(C#N)=C/c1ccccc1Br | > 46.4
COc1ccccc1C(=O)Nc1sc2c(c1C#N)CCC2 | 0.5 (≈ 1.68 µM)
CC(=O)c1c(C)[nH]c(C(=O)OCc2ccc([N+](=O)[O-])cc2)c1C | 2.1 (≈ 6.64 µM)
O=C(NC(=S)Nc1ccc2oc(=O)ccc2c1)c1ccco1 | 2.8 (≈ 8.91 µM)
COc1ccc(CN2CCc3ccccc3C2)c(OC)c1 | 29.6 (≈ 104 µM)
CN1CCC(N(C)C(=O)NC2CCCCC2)CC1 | > 38

Compound | solubility kinetic [µg/mL]
COc1ccc(C(=O)Nc2ccc(C(=O)N3CCCCC3C)cc2)c(OC)c1OC (stereo unspecified) | > 61.9
CCCNC(=O)N1CCCC(C(N)=O)C1 (stereo unspecified) | > 32
COc1ccc(C(=O)Nc2ccc(NC(=O)c3ccccc3F)cn2)cc1 | 1 (≈ 2.74 µM)
COc1ccc(N2C(=S)NC3CS(=O)(=O)CC32)cc1 (stereo unspecified) | > 44.8
O=C(c1cccc(C(F)(F)F)c1)N1CCN(CCc2ccccc2)CC1 | > 54.4
Cc1cccnc1NC(=O)Nc1cccc(Cl)c1 | 0.5 (≈ 1.91 µM)
O=C(NCCN1CCCCC1)Nc1ccc(F)cc1 | 37.4 (≈ 141 µM)
N#Cc1ccc(OCC(O)CS(=O)(=O)c2ccccc2)cc1 (stereo unspecified) | 46.6 (≈ 147 µM)
CSc1ncccc1C(=O)Nc1cccc(C)n1 | > 38.9
CC(C)c1ccccc1NC(=O)C1CC(=O)N(C2CCCC2)C1 (stereo unspecified) | > 47.2
COc1cc(C(=O)CSc2nccn2C)cc(OC)c1OC | > 48.4
CC(C)C(NC(=O)c1ccc(Cl)cc1Cl)C(=O)N1CCC1 (stereo unspecified) | > 49.4
O=C(NCC1CCCO1)C1CC(=O)N(c2ccc(Cl)cc2)C1 (stereo unspecified) | > 48.4
CC(Oc1ccc(Br)cc1Cl)C(=O)Nc1ccncc1 (stereo unspecified) | 45.9 (≈ 129 µM)
COc1cc([N+](=O)[O-])ccc1NC(=O)CN1CCCC1 | 37.2 (≈ 133 µM)
Nc1nc(NC2CCCCC2)nc(NCCO)c1[N+](=O)[O-] | 38.1 (≈ 129 µM)
O=C(/C(=C(\O)c1ccccc1)c1nc2ccccc2[nH]1)c1ccccc1 | < 0.4
O=C(CN1CCCc2ccccc21)NCCc1ccc(F)cc1 | > 46.9
C=CCc1ccc(OCCCNC2CCCC2)c(OC)c1 | 35.6 (≈ 123 µM)
Cc1cc(C(=O)OCC(=O)NC2CCC(C)CC2)c(C)o1 (stereo unspecified) | 11.6 (≈ 39.5 µM)
CCC(C)(C)NC(=O)c1ccc2c(c1)OCCO2 | > 37.4
CCCn1c(Nc2cccc(OC)c2)nc2ccccc21 | 2.1 (≈ 7.46 µM)
Cc1ccc2c(C(=O)CN3CCCCC3)c(C)[nH]c2c1 | > 40.6
CCC1CCCCN1S(=O)(=O)c1ccc([N+](=O)[O-])cc1 (stereo unspecified) | 34.3 (≈ 115 µM)
O=C(NC1CCNCC1)C1CC1 | > 25.2

Compound | solubility kinetic [µg/mL]
CON(C)S(=O)(=O)c1cccc(C(=O)N(CC(=O)Nc2ccccc2C(F)(F)F)Cc2ccco2)c1 | 50.2 (≈ 95.5 µM)
Cc1ccc(NC(=O)C2CCCN2C(=O)OCc2ccccc2)cc1C (stereo unspecified) | 11.5 (≈ 32.6 µM)
O=C1COc2ccc(C(=O)COC(=O)Cc3ccccc3F)cc2N1 | 24 (≈ 69.9 µM)
Cc1cc(C)nc(NC(=O)c2ccc(C)c(C)c2)n1 | 35.2 (≈ 138 µM)
O=C(COc1ccccc1Cl)Nc1ccc2c(c1)OCO2 | 1.2 (≈ 3.93 µM)
O=C(O)Cc1c(-c2ccccc2)c2cc(Cl)ccc2[nH]c1=O | > 47.1
Cc1ccc(O)c(CNc2cnc3ccccc3c2)c1 | 18.1 (≈ 68.5 µM)
CC(C)NC(=O)c1ccc(COc2cc(Cl)ccc2Cl)o1 | 2.8 (≈ 8.53 µM)
N#CC(CC(=O)c1ccc(F)cc1)c1ccc2c(c1)OCO2 (stereo unspecified) | 1.2 (≈ 4.04 µM)
O=C(COc1ccc(Cl)cc1)Nc1nnc(C2=COCCO2)o1 | > 50.7
CCC(=O)NCCc1nc2cc(NC(=O)Nc3ccccc3)ccc2n1C | > 54.8
O=c1cc(NCCc2ccccc2)c2ccccc2o1 | 1.1 (≈ 4.15 µM)
Fc1cccc(Nc2nc(Cl)nc(Cl)n2)c1 | 36.2 (≈ 140 µM)
CCOc1ccccc1NC(=O)NCc1cccnc1 | > 40.7
O=C(/C=C/Nc1ccc(S(=O)(=O)Nc2ncccn2)cc1)c1cccs1 | 6.7 (≈ 17.3 µM)
CC(C)(C)N1CC(C(=O)Nc2ccc(C#N)cc2)CC1=O (stereo unspecified) | 40.2 (≈ 141 µM)
CCCC1c2ccsc2CCN1C(=S)NC (stereo unspecified) | 29.8 (≈ 117 µM)
O=C(Nc1ccc(C(F)(F)F)cc1)c1ccc2ncsc2c1 | 4.6 (≈ 14.3 µM)
CC1CCCN(C(=O)c2cc3ccccc3cc2O)C1 (stereo unspecified) | 38.5 (≈ 143 µM)
COc1ccc(C(=O)Nc2cccc3ccccc23)cc1 | 1.1 (≈ 3.97 µM)
Cc1ccccc1N=CC1=C(O)c2ccccc2C1=O | < 0.6
CC1CC(C#N)N(N(C)C)C1=C(C#N)C#N (stereo unspecified) | > 32.3
COc1cccc(C(=O)Nc2ccc(Oc3cccc(C(F)(F)F)c3)nc2)c1 | < 0.4
Cc1ccc(C(=O)NCCCN2CCOCC2)cc1Cl | 42.5 (≈ 143 µM)
Cc1ccc(CNS(=O)(=O)c2ccc(F)c(F)c2)n1C | > 45

Compound | solubility kinetic [µg/mL]
CN(Cc1ccc2c(c1)OCCO2)C(=O)CN1C(=O)NC2(CCCCC2)C1=O | 50.2 (≈ 130 µM)
Nc1ccc(S(=O)(=O)N2CCCC2)cc1Cl | > 39.1
COC(=O)c1cccc(N2C(=O)C3C4C=CC(CC4)C3C2=O)c1 (stereo unspecified) | 9.2 (≈ 29.5 µM)
COc1ccc(CNC2CC(C)N(C)CC2C)cc1OC.Cl (stereo unspecified) | 50.9
Cc1csc2c(N3CCCCC3)ncnc12 | > 35
Cn1c(O)c(C=NCCN2CCOCC2)c(=O)[nH]c1=S | > 44.8
Cc1ccc(N(CC(=O)NC2CCCC2)C(=O)c2ccc(C)s2)cc1 | 49.2 (≈ 138 µM)
CC1CC(C)CN(C(=O)CCn2c(=O)oc3ccccc32)C1 (stereo unspecified) | > 45.4
O=c1c2ccccc2nc(Cc2ccccc2)n1-c1cccc(O)c1 | 6 (≈ 18.3 µM)
COc1ccc2[nH]c(-c3ccccc3)cc2c1 | < 0.5
COc1cc2c(cc1OC)CN(CC(=O)Nc1ccc(F)cc1)CC2 | 39 (≈ 113 µM)
FC(F)(F)c1cccc(NC(=S)Nc2ccc(Cl)c(Cl)c2)c1 | 1.5 (≈ 4.11 µM)
CC(=O)Nc1nnc(SCC(=O)NC2CCCC2)s1 | > 45.1
Cc1ccsc1C(=O)Nc1ccccc1N1CCCC1 | 27.6 (≈ 96.4 µM)
CN(C)C(=O)c1ccc(NC(=O)c2sccc2-c2ccccc2)cc1 | 49.1 (≈ 140 µM)
CCCC(C)NC(=O)CSc1nc2ccc(C)cc2[nH]1 (stereo unspecified) | > 43.7
O=C(Nc1nccs1)C1CC(=O)N(CCc2ccc(F)cc2)C1 (stereo unspecified) | > 50
Cc1nc(C)c(-c2ccnc(/N=C/NO)n2)s1 | 34 (≈ 136 µM)
Oc1ccc(NCc2cccs2)cc1 | 26.5 (≈ 129 µM)
O=C1C(Cl)=CC(=Nc2ccc([O-])cc2)C=C1Cl.[Na+] | > 43.5
O=C(CN1C(=O)c2ccccc2C1=O)Nc1ccc(Cl)cn1 | 4.6 (≈ 14.6 µM)
COc1ccc(S(=O)(=O)N2CCOCC2)cc1NC(=O)CSc1ncccn1 | 13.8 (≈ 32.5 µM)
COc1ccc2oc(=O)c(C(=O)Nc3cccc(C(C)=O)c3)cc2c1 | < 0.7
O=C(NC(=S)NNC(=O)c1ccco1)c1ccccc1 | > 43.4
CCC(=O)N1CC(=O)Nc2ccc(F)cc2C1c1ccc(F)cc1 (stereo unspecified) | > 49.6

Compound | solubility kinetic [µg/mL]
COc1cc(/C=C/C(=O)O)cc(S(=O)(=O)N2CCCc3ccccc32)c1OC | 45.3 (≈ 112 µM)
O=S(=O)(c1ccc(=S)[nH]c1)N1CCCCCC1 | 32 (≈ 117 µM)
COc1cc([N+](=O)[O-])ccc1NC(=O)C1C2C=CC(C2)C1C(=O)O (stereo unspecified) | > 49.8
O=C(Nc1cc(Cl)ccc1-n1cncn1)C1CC1 | > 39.4
CCC(C(=O)NC(C)c1ccccc1)C(=O)NC(C)c1ccccc1 (stereo unspecified) | 6.8 (≈ 20.1 µM)
Cc1ccc(C(=O)Nc2nccs2)s1 | 9.6 (≈ 42.8 µM)
COc1ccc(S(=O)(=O)N2CCN(C)CC2)cc1 | > 40.6
CC(=O)Nc1ccc(S(=O)(=O)N(C)CC(=O)NCCOc2ccccc2)cc1 | > 60.8
COc1cccc(Nc2nc(N)c([N+](=O)[O-])c(NCc3ccco3)n2)c1 | 1.2 (≈ 3.37 µM)
CC(=O)C1=C(c2ccccc2)NC(=O)NC1c1ccc(O)c(Cl)c1 (stereo unspecified) | > 51.4
CCNC(=S)N1CCC(Cc2ccccc2)CC1 | 35.4 (≈ 135 µM)
O=C(Nc1cccc(F)c1)C1CCCN(c2cnccn2)C1 (stereo unspecified) | > 45.1
O=c1c2ccccc2nc(/C=C/c2ccc(Br)cc2)n1CCO | 0.8 (≈ 2.15 µM)
Cc1cccc(C)c1NC(=O)Cc1cccs1 | > 36.8
CC(=O)c1c(C)[nH]c(C(=O)Nc2cccc(C(F)(F)F)c2)c1C | 2 (≈ 6.17 µM)
CN(CC(=O)NCc1ccco1)CC(=O)Nc1ccc(F)c(F)c1F | 45.2 (≈ 127 µM)
Cc1noc(C)c1CN1C(=O)c2ccc([N+](=O)[O-])cc2C1=O | > 45.2
Cc1cc(C)c(NC(=O)C2CC(=O)N(C3CCCC3)C2)c(C)c1 (stereo unspecified) | > 47.2
O=C(Nc1cccc(S(=O)(=O)Nc2ccccc2F)c1)c1ccco1 | 11.1 (≈ 30.8 µM)
O=[N+]([O-])c1ccc([N+](=O)[O-])c(Nc2ccc(N3CCOCC3)cc2)c1 | < 0.2
CC(NC(=O)c1cc(-c2ccccc2)nc2ccccc12)C1CCCO1 (stereo unspecified) | > 52
